Source: patent EP1280528B1, “R-ELIPRODIL FOR TREATING GLAUCOMA” (Alcon, Inc, priority 2000, dated 2001)
pKi: −log10 of the molar value. “Also recorded” adds a separate entry of the source.

What was measured:
NMDA receptor = NMDA receptor (Homo sapiens, UniProt Q05586+Q13224); test: electrophysiology and ligand displacement studies at the NMDA receptor; type: binding
[1] = tested on: rat retinal ganglion cells; test: glutamate-induced rat retinal ganglion cell death; type: cell-based; conditions: 10nM for 30 minutes, then 100µM glutamate, viable cells counted after 3 days; Figure 1
From the text: Retinal ganglion cells were selected as they represent the retinal cell that degenerates in glaucoma. MK-801 was selected as a reference NMDA antagonist.
Isolation of rat retinal ganglion cells and assessment of viability in the absence and presence of glutamate was described in Pang, et al., "Protection by Eliprodil Against Excitotoxicity in Cultured Rat Retinal Ganglion Cells", Investigative Ophthalmology & Visual Science, Vol. 40(6), pp. 1170-1176, May, 1999. Briefly, isolated cultured rat retinal ganglion cells were treated with racemic (R/S) eliprodil (10nM), R-eliprodil (10nM), or S-eliprodil (10nM) for thirty (30) minutes followed by the addition of 100µM glutamate. Survival was determined by counting viable cells after an incubation period of three (3) days. Survival with vehicle alone defines 100%. […] S-eliprodil was ineffective.

hippocampal slices = test: recovery of synaptic transmission after hypoxia in hippocampal slices; type: cell-based; conditions: for efficacy for recovery of excitatory post synaptic potentials following hypoxia: at a comparable dose
Description: Dose-response relations comparing the efficacy of Racemic (R/S)-eliprodil (open circles), R-eliprodil (closed circles) and memantine (closed diamonds) for their ability to improve recovery of synaptic transmission following a 15 minute period of hypoxia in hippocampal slices in vitro (Figure 2).
Preparation of the hypoxic hippocampal slice preparation has been reported by Reyes et al., "Eliprodil, a non-competitive, NR2B-selective NMDA antagonist, protects pyramidal neurons in hippocampal slices from hypoxic/ischemic damage", Brain Research, Vol. 782, pp. 212-218, 1998. Briefly, hippocampal slices were prepared acutely the same day as the experiment, and each compound was bath applied 30 minutes prior to delivery of the 15 minute hypoxic insult. Recovery of evoked epsps is expressed as percent of the initial, pre-hypoxia epsp maximum slope, with this percent recovery assessed 60 minutes after reoxygenation. Each point is the mean ± S.E.M. of 8 slices at each dose, and EC50's were calculated from a single-active site Lineweaver-Burke linear fit.

[2] = tested on: lateral vestibular nucleus; test: NMDA-induced firing rate of the lateral vestibular nucleus in vivo
[3] = tested on: piglet Purkinje fibers from the heart; test: action potential duration in piglet Purkinje fibers; conditions: for concentration with statistically significant prolongation of APD90: action potential duration at 90% repolarization; for maximum effect on APD90: comparison between compounds
Description: (§1) Eliprodil and its enantiomers were evaluated for their potential for prolonging QTc by determining their dose-related effects on cardiac electrical activity. Two different experimental models were utilized for these studies: (1) Action potential duration in piglet Purkinje fibers from the heart and (2) Electrocardiographic parameters in pentobarbital anesthetized cats.

[4] = tested on: pentobarbital-anesthetized cats; test: hemodynamic and electrocardiographic parameters in anesthetized cats; conditions: increasing doses 0.01 to 3 mg/kg, five-minute intravenous infusion every 20 minutes
Description: as §1
Eliprodil and its two enantiomers were also evaluated for hemodynamic and electrocardiographic parameters in pentobarbital-anesthetized cats. […] Compounds were administered at increasing doses from 0.01 to 3 mg/kg as a five-minute intravenous infusion every 20 minutes. […]

[5] = plasma level in the anesthetized cat protocol; type: in vivo; conditions: 0.1 mg/kg dose, intravenous infusion
[6] = U.S. Patent No. 5,547,963; cited from earlier work
histamine H1 = histamine H1 (Homo sapiens, UniProt P35367); test: binding studies, histamine H1
Chain of histamine H1 (P35367 whole entry): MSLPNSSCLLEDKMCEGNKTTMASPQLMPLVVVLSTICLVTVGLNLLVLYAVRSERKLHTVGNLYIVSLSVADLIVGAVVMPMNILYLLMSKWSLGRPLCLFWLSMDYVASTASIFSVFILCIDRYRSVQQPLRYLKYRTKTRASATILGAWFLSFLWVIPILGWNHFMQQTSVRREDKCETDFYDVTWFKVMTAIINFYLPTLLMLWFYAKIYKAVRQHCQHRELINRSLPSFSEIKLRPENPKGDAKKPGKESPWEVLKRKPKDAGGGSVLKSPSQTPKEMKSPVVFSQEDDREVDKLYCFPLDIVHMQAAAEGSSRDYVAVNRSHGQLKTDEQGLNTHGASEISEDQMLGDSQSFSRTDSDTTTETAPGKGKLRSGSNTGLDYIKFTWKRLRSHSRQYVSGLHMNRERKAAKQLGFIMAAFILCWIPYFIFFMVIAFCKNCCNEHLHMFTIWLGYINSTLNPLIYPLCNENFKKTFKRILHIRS
From the text: (§2) The role of these pharmacological activities in the neuroprotective efficacy has not been established for this drug.

β3-adrenergic = β3-adrenergic (Homo sapiens, UniProt P13945); test: binding studies, β3-adrenergic
Chain of β3-adrenergic (P13945 whole entry): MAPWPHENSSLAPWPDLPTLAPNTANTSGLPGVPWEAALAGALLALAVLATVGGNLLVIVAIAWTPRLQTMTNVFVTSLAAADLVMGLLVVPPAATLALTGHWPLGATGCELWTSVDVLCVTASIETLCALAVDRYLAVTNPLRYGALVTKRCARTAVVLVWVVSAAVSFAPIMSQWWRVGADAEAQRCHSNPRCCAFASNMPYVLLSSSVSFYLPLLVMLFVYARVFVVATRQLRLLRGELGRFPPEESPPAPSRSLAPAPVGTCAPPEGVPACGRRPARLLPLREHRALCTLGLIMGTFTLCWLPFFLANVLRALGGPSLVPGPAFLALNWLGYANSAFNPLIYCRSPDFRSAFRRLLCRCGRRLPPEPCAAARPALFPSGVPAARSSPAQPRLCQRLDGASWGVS
From the text: as §2

5-HT uptake = 5-HT uptake (Homo sapiens, UniProt P31645); test: binding studies, 5-HT uptake
Chain of 5-HT uptake (P31645 whole entry): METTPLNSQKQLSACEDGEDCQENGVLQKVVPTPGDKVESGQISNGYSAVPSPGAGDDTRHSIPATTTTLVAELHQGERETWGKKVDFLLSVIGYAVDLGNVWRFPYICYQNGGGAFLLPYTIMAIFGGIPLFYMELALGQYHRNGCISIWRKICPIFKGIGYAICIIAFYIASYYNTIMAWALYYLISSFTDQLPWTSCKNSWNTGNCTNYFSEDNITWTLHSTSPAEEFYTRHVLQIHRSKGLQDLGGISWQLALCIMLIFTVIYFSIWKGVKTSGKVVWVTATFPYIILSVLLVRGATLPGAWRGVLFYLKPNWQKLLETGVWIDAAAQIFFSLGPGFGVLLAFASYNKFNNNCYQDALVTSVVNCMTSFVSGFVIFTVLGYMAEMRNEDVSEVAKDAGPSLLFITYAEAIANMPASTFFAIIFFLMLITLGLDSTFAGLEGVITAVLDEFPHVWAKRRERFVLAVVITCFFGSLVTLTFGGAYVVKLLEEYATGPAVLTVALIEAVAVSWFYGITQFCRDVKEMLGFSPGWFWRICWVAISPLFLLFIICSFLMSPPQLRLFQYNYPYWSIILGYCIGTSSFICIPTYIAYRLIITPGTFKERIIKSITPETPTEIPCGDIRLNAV
From the text: as §2

5-HT2A = 5-HT2A (Homo sapiens, UniProt P28223); test: binding studies, 5-HT2A
Chain of 5-HT2A (P28223 whole entry): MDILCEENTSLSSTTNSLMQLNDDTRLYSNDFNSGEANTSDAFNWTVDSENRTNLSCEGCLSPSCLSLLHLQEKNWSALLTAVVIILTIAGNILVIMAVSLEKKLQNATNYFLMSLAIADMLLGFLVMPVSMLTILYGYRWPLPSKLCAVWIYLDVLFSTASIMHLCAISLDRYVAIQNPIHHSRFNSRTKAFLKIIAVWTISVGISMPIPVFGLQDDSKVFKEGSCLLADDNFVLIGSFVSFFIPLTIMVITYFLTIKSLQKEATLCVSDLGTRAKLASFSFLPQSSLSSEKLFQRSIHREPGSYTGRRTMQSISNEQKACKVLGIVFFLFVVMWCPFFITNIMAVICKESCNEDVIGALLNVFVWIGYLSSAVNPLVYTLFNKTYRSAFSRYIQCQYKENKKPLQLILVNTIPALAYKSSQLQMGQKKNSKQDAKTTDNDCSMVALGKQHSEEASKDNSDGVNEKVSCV
From the text: as §2

5-HT1A = molecular target: T1, 5-HT1A (Homo sapiens, UniProt P08908); test: binding studies, 5-HT1A
T1 sequence (P08908 1-422): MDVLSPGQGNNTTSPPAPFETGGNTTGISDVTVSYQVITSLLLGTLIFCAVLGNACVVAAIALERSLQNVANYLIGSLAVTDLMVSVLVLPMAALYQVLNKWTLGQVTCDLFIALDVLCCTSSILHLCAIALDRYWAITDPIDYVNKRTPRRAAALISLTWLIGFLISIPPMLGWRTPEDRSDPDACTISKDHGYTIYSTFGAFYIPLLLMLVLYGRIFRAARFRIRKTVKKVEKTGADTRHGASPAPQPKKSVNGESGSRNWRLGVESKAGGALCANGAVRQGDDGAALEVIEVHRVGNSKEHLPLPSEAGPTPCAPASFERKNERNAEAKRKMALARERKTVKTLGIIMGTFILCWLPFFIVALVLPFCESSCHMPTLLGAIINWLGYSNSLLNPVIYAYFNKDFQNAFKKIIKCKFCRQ
From the text: as §2

histamine H2 = histamine H2 (Homo sapiens, UniProt P25021); test: binding studies, histamine H2
Chain of histamine H2 (P25021 whole entry): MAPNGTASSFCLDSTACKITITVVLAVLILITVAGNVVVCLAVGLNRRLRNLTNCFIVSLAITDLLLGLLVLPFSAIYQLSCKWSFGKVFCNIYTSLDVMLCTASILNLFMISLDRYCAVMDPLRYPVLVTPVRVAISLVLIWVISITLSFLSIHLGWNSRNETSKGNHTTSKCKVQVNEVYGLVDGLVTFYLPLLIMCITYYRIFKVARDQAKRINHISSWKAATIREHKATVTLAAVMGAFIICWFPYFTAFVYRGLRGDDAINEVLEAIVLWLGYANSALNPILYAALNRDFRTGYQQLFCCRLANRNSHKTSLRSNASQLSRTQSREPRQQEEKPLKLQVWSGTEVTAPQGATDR
From the text: as §2

α1-adrenergic = test: binding studies, α1-adrenergic
From the text: as §2

5-HT7 = 5-HT7 (Homo sapiens, UniProt P34969); test: binding studies, 5-HT7
Chain of 5-HT7 (P34969 whole entry, species assumed): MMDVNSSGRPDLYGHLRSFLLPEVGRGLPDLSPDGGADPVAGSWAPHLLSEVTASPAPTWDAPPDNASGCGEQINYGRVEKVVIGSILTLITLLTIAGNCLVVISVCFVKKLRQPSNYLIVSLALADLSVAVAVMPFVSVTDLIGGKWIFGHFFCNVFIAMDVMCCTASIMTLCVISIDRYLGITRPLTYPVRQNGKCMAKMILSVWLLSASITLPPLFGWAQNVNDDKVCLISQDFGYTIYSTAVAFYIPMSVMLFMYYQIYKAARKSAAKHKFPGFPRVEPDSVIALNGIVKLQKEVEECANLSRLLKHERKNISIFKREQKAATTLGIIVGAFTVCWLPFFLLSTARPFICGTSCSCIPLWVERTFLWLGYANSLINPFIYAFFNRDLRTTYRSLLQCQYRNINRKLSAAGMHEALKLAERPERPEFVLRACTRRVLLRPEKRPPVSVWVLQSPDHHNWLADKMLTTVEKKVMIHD
From the text: as §2

humans = conditions: following some doses in humans; cited from earlier work
sigma receptors = conditions: rat brain; U.S. Patent No. 5,023,266; cited from earlier work

Chain of NMDA receptor (Q13224 27-1484, other chains not shown): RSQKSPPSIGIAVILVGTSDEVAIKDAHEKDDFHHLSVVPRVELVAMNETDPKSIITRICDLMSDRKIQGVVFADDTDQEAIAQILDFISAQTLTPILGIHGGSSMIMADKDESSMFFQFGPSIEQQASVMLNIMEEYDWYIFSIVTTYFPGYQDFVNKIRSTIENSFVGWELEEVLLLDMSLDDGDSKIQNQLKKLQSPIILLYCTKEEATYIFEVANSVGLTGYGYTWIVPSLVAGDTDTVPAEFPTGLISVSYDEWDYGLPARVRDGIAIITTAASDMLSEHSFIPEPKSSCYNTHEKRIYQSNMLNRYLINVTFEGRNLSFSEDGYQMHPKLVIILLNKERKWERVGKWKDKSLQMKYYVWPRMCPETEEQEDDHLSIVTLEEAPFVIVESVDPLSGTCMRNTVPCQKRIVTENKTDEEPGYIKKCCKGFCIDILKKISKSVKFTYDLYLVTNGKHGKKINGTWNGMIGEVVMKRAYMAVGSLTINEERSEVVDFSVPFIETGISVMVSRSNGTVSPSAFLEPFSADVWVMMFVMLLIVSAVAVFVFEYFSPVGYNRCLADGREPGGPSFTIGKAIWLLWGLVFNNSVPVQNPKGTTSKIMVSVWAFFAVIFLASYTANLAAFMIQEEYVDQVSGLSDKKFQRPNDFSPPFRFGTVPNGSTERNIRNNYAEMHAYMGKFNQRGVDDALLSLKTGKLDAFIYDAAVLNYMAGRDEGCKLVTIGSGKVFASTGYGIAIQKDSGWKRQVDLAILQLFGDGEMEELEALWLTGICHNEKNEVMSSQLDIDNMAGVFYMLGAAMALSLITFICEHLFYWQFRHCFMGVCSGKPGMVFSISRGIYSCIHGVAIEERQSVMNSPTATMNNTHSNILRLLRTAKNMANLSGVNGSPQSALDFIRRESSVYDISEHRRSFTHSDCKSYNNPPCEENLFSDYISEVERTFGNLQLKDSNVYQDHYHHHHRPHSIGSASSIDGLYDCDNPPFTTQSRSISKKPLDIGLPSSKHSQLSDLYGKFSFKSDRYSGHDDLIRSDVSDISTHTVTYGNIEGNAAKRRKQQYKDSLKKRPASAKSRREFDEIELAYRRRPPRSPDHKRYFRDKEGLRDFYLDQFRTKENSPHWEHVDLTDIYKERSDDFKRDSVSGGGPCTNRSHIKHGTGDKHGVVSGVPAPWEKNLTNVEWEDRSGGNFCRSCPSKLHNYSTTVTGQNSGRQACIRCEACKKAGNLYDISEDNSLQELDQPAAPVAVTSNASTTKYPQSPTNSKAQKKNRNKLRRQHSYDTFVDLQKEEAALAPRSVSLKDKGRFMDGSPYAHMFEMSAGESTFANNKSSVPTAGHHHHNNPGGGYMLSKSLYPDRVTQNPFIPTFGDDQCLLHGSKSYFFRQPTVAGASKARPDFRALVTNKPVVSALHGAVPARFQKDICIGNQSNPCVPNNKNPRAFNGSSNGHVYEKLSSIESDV

SMILES | pKi (NMDA receptor) | neuroprotective effect (survival of retinal ganglion cells) [1] | efficacy for recovery of excitatory post synaptic potentials following hypoxia (hippocampal slices) | inhibition of NMDA-induced firing rate [2] | concentration with statistically significant prolongation of APD90 [3] [nM] | maximum effect on APD90 [3] | Threshold Dose, Heart Rate Decrease [4] [mg/kg] | Threshold Dose, Mean Blood Pressure Decrease [4] [mg/kg] | Threshold Dose, QTc Prolongation [4] [mg/kg] | neurotrophic effects [6] | other results
O[C@@H](CN1CCC(Cc2ccc(F)cc2)CC1)c1ccc(Cl)cc1 [R-eliprodil, R-α-(4-chlorophenyl)-4-(4-fluorophenylmethyl)-1-peperidineethanol] | 6.70 | marked neuroprotective activity; also recorded: as efficacious as a protectant as racemic eliprodil | substantial recovery; also recorded: more efficacious than either racemic or S-eliprodil | strongly inhibit | ≥ 100 | less than that seen with S(+) eliprodil | 0.3 | 1.0 | 0.1 | Equipotency | potency for recovery of evoked epsps (EC50 comparison) (hippocampal slices; bath applied 30 minutes before 15 minute hypoxia, recovery 60 minutes after reoxygenation, p<0.05, Figure 2): statistically significantly more potent; plasma level [5]: 34.9 ± 2.8 ng/mL
O[C@H](CN1CCC(Cc2ccc(F)cc2)CC1)c1ccc(Cl)cc1 [S-eliprodil] | 5.00 | ineffective | less effective | almost inactive at the highest dose tested | ≥ 30 |  | 0.1 | 1.0 | 0.01 | Equipotency | 
OC(CN1CCC(Cc2ccc(F)cc2)CC1)c1ccc(Cl)cc1 (racemic) [Eliprodil] |  | marked neuroprotective activity | less effective | strongly inhibit |  | equal to that of S(+) eliprodil | 0.1 | 1.0 | 0.03 | Equipotency | affinity (histamine H1): sub-micromolar; affinity (β3-adrenergic): sub-micromolar; affinity (5-HT uptake): sub-micromolar; affinity (5-HT2A): sub-micromolar; affinity (5-HT1A): sub-micromolar; affinity (histamine H2): sub-micromolar; affinity (α1-adrenergic): sub-micromolar; affinity (5-HT7): sub-micromolar; QTc prolongation (humans): asymptomatic QTc prolongation; binding to sigma receptors (sigma receptors): potently bind
